The test system of the assay is AKT Tyr176-phosphorylation. The experiment in a line: Cell fractionation and immunoblotting of pTyr176-AKT in MCF-7 cells. In kind it is cell-based, human. The conditions noted are these: MCF-7 cells serum starved 24 h; insulin 50 ng/ml or heregulin 30 ng/ml. Here is the method: FIG. 27 is a blot showing Tyr176-phosphorylation regulates AKT plasma membrane localization. MCF-7 cells were serum starved (24 h) and treated with insulin (50 ng/ml) or for indicated times. Cell lysates were fractionated and IB with the indicated antibodies. Input panels pAck1 (Tyr), pIR(Tyr) and pHER-2(Tyr) represents IP with respective antibodies followed by IB with pTyr antibodies.
FIG. 28 is a blot showing Tyr176-phosphorylation regulates AKT plasma membrane localization. MCF-7 cells were serum starved (24 h) and treated (C) heregulin (30 ng/ml) for indicated times. Cell lysates were fractionated and IB with the indicated antibodies. Input panels pAck1 (Tyr), pIR(Tyr) and pHER-2(Tyr) represents IP with respective antibodies followed by IB with pTyr antibodies.
FIG. 29 is a blot showing Tyr176-phosphorylation regulates AKT plasma membrane localization. MCF7 cells were transfected with control or Ack1-specific siRNAs (40 nM) for 48 h and treated with heregulin for 40 mins. Cell lysates were fractionated and IB with indicated antibodies.
FIG. 34 is a blot showing Tyr176-phosphorylation of AKT is PI3K-independent. MCF-7 cells were pretreated with LY294002 (10 μM, 1 h) followed by heregulin for 40 mins. Cell lysates were fractionated and membrane fraction was subjected to IB with indicated antibodies.
Cell fractionation, immunoprecipitations and kinase assay. […]
(In general: In western blotting, separated proteins are transferred to a membrane and probed.)

As for heregulin, the “time of optimal AKT Tyr-176 phosphorylation and plasma membrane accumulation” value is 40 min.

In the case of “insulin: growth factor ligand used to stimulate cells”, the “time of optimal AKT Tyr-176 phosphorylation and plasma membrane accumulation” value amounted to 30 min.
